Test results taken from PubChem BioAssay (NCI).
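Interpolation was linear, between the two tested concentrations surrounding the appropriate level; five concentrations were tested over 48 hours in 96-well plates. GI50 marks 50% less growth. At the TGI there is no net growth.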

What was measured:
Test in all cases: DTP human tumour cell line panel, 48 h
TK-10 renal = test system: TK-10 renal
SNB-19 CNS = test system: SNB-19 CNS
NCI-H23 lung = test system: NCI-H23 lung
CAKI-1 renal = test system: CAKI-1 renal
OVCAR-5 ovarian = test system: OVCAR-5 ovarian
786-0 renal = test system: 786-0 renal
A498 renal = test system: A498 renal
SK-MEL-28 melanoma = test system: SK-MEL-28 melanoma
HOP-92 NSCLC = test system: HOP-92 NSCLC
MDA-MB-231 breast = test system: MDA-MB-231 breast

SMILES	TGI (TK-10 renal)	TGI (SNB-19 CNS)	TGI (NCI-H23 lung)	TGI (CAKI-1 renal)	TGI (OVCAR-5 ovarian)	TGI (786-0 renal)	TGI (A498 renal)	TGI (SK-MEL-28 melanoma)	TGI (HOP-92 NSCLC)	GI50 (TK-10 renal)	GI50 (SNB-19 CNS)	GI50 (NCI-H23 lung)	GI50 (CAKI-1 renal)	GI50 (HOP-92 NSCLC)	GI50 (OVCAR-5 ovarian)	GI50 (786-0 renal)	GI50 (A498 renal)	GI50 (SK-MEL-28 melanoma)	GI50 (MDA-MB-231 breast)	TGI (MDA-MB-231 breast)
COc1ccc(/C=C2\Cc3ccccc3C2=O)cc1OC	> 100 µM	> 100 µM	> 100 µM	> 100 µM	> 100 µM	> 100 µM	> 100 µM	> 100 µM	–	–	–	–	–	–	–	–	–	–	–	–
c1ccc2c(CNCCCCCCNCc3cccc4ccccc34)cccc2c1	25.2 µM	–	30.1 µM	20.7 µM	29.3 µM	26.1 µM	33.6 µM	3.29 µM	20.5 µM	–	–	–	–	–	–	–	–	–	–	–
COC(=O)C[CH](C(=O)OC)[Ge]([CH3])([CH3])[S]c1ccccc1 (stereo not given)	> 100 µM	49.9 µM	64.7 µM	47.8 µM	42.6 µM	30.7 µM	60.9 µM	65.7 µM	95.8 µM	38.9 µM	19.5 µM	22.9 µM	20.8 µM	48.6 µM	18.7 µM	15.9 µM	19.7 µM	23.3 µM	–	–
COC(=O)c1c[nH]c(=O)[nH]c1=O	> 100 µM	> 100 µM	> 100 µM	> 100 µM	> 100 µM	> 100 µM	–	> 100 µM	> 100 µM	–	–	–	–	–	–	–	–	–	–	–
C=C(C=O)C1CC(=O)C(C(=O)OC)[C@@H]2O[C@@](C)(CC2=O)C[C@@H]2OC(=O)[C@]3(O[C@@H]23)[C@@H](C(=O)OC)C1 (stereo not given in full)	42 µM	> 100 µM	42.8 µM	–	51.2 µM	51 µM	47 µM	66.5 µM	37.9 µM	24.7 µM	38.3 µM	18.3 µM	–	16.5 µM	23.1 µM	19.3 µM	20.7 µM	20.2 µM	22.1 µM	57.5 µM
COC(=O)/C=C/C(=O)C1C(C(=O)OC)C2(C(=O)OC)CCC1(C(=O)OC)N2 (stereo not given)	> 100 µM	> 100 µM	> 100 µM	> 100 µM	> 100 µM	> 100 µM	–	> 100 µM	–	–	–	–	–	–	–	–	–	–	–	–
C=CN1C(=O)OC(c2ccccc2)C1c1ccccc1 (stereo not given)	> 100 µM	> 100 µM	> 100 µM	> 100 µM	> 100 µM	> 100 µM	> 100 µM	> 100 µM	> 100 µM	> 100 µM	> 100 µM	> 100 µM	> 100 µM	> 100 µM	–	> 100 µM	> 100 µM	> 100 µM	–	–
CC1(C)N=C(N)N=C(N)N1c1cccc(C#N)c1	> 100 µM	> 100 µM	> 100 µM	> 100 µM	> 100 µM	> 100 µM	> 100 µM	> 100 µM	–	18.2 µM	49.4 µM	5.32 µM	2.45 µM	–	2.74 µM	0.578 µM	20.9 µM	48.8 µM	> 100 µM	> 100 µM
CC(=O)OCC1OC(OC2C(COC(C)=O)OC(OCCC[S-])C(OC(C)=O)C2OC(C)=O)C(OC(C)=O)C(OC(C)=O)C1OC(C)=O.[Au+].c1ccc(CN2[CH-]N(Cc3ccccc3)C(c3ccccc3)=C2c2ccccc2)cc1 (stereo not given)	14.8 µM	15.2 µM	14 µM	–	27 µM	8.56 µM	11.1 µM	18.5 µM	6.24 µM	3.57 µM	3.66 µM	3.23 µM	–	2.37 µM	5.67 µM	2.8 µM	3.41 µM	3.53 µM	2.38 µM	5.93 µM
O=P(Oc1ccc(Cl)cc1)(Oc1ccc(Cl)cc1)N1CC1	> 10 µM	> 10 µM	> 10 µM	–	> 10 µM	> 10 µM	> 10 µM	> 10 µM	–	–	–	–	–	–	–	–	–	–	–	> 10 µM
COc1ccc(/C=C/c2c(C(=O)/C=C/c3ccc(Cl)cc3)c(C)nc3ccccc23)cc1	4.95 µM	3.29 µM	3.35 µM	2.62 µM	4.98 µM	3.4 µM	3.39 µM	3.42 µM	–	2.87 µM	1.74 µM	1.39 µM	1.14 µM	–	2.08 µM	1.82 µM	1.89 µM	1.81 µM	2.38 µM	7.82 µM
CC(C)[C@@H]1C=C(c2ccccc2)c2ccccc2C1C(C#N)(C#N)C(C)C (stereo not given in full)	> 100 µM	> 100 µM	> 100 µM	–	> 100 µM	> 100 µM	> 100 µM	> 100 µM	> 100 µM	–	–	–	–	–	–	–	–	–	–	–
COc1cc([C@@H]2c3cc4c(cc3[C@@H](NC(=O)c3ccc(N)cc3)C3COC(=O)[C@@H]32)OCO4)cc(OC)c1O (stereo not given in full)	29.7 µM	17.4 µM	4.97 µM	89.4 µM	34.5 µM	3.84 µM	11.8 µM	50.8 µM	> 100 µM	–	–	–	–	–	–	–	–	–	–	–
N#Cc1cccc(NC(=O)c2ccc(C(=O)O)c(C(=O)c3ccc(C(=O)O)c(C(=O)Nc4cccc(C#N)c4)c3)c2)c1	> 100 µM	> 100 µM	> 100 µM	> 100 µM	> 100 µM	> 100 µM	> 100 µM	–	> 100 µM	–	–	–	–	–	–	–	–	–	–	–
O=C(/C=C/c1ccc(C(F)(F)F)cc1)c1ccc(Nc2nc(NCCO)nc(NCCO)n2)cc1	14.5 µM	–	17.4 µM	–	14.1 µM	10.9 µM	21.2 µM	13 µM	25 µM	2.93 µM	–	3.85 µM	–	5.28 µM	2.85 µM	3.12 µM	8.85 µM	3.45 µM	3.29 µM	13.8 µM
COc1ccc(-c2nn(-c3cccc(Cl)c3)cc2C=C(C#N)C#N)cc1	6.48 µM	> 100 µM	7.66 µM	–	48.4 µM	6.36 µM	5.95 µM	5.84 µM	3.98 µM	2.6 µM	2.63 µM	2.68 µM	–	1.26 µM	3.68 µM	2.25 µM	1.23 µM	2.35 µM	2.03 µM	5.14 µM
